# According to US20100216255A1, “METHODS OF DETERMINING ACTIVE LEVELS OF DRUGS IN FLUID SAMPLES” (CLINICAL REFERENCE LABORATORY, priority 2001, published 2010):
# Biological target: Angiotensin Converting Enzyme (ACE) (Homo sapiens, UniProt P12821)
# Assay: ACE enzyme inhibition assay on samples from individuals reporting an ACE-inhibiting drug
# Conditions: urine samples from individuals self-reporting the drug; count out of the LISTED number
# Method: The bottle was then inverted a few times and then put on a shaker (Clay Adams CA6000 Centrifuge Becton Dickinson Microbiology System Sparks, Md.) at speed setting 2 for ten minutes. […] The pH was adjusted to 8.2 with 6 N hydrochloric acid.
# Using the above-described reagents, a Hamilton MicroLab AT pipetting station was used to transfer 100 μl of the ACE serum in Tris buffer to each well of a microtiter plate. Next, 25 μl of the cut-off level calibrator, controls and unknown were added to their corresponding well locations with the Hamilton MicroLab AT, as shown in Table 1.
# Five different patient samples were then added to five other wells. The microtiter plate was shaker on Titer Plate Shaker (Lab Line Instruments, Inc. Melrose, Ill.) at a setting of 2 for at least five minutes before pipetting 100 μl of the substrate FAPGG into each well. Next, solution was mixed by shaking the microtiter plate on the shaker at a speed setting of 2 for one minute. The microtiter plate was placed in the Spectra Mac Plus (Molecular Devices, Sunnyvale, Calif.) plate reader and the optical density of each sample at 340 nanoMeter was determined. The microtiter plate was then incubated at 37° C. for two hours. The optical density was again determined on the plate reader. This two-hour reading of optical density was then subtracted from the initial reading of optical density and termed the “delta OD 340.”
# Fluid samples were obtained from individuals reporting that they were currently taking an ACE-inhibiting drug. […] The medications reported by the patients included eight different medications of the ACE-inhibiting drug family. Each individual reported taking only one specific ACE-inhibiting drug. Thus, this example tests the ability of the assay to identify individuals on ACE-inhibiting drugs without prior knowledge of the specific drug being taken.
# Chain of Angiotensin Converting Enzyme (ACE) (P12821 30-1232 limits assumed): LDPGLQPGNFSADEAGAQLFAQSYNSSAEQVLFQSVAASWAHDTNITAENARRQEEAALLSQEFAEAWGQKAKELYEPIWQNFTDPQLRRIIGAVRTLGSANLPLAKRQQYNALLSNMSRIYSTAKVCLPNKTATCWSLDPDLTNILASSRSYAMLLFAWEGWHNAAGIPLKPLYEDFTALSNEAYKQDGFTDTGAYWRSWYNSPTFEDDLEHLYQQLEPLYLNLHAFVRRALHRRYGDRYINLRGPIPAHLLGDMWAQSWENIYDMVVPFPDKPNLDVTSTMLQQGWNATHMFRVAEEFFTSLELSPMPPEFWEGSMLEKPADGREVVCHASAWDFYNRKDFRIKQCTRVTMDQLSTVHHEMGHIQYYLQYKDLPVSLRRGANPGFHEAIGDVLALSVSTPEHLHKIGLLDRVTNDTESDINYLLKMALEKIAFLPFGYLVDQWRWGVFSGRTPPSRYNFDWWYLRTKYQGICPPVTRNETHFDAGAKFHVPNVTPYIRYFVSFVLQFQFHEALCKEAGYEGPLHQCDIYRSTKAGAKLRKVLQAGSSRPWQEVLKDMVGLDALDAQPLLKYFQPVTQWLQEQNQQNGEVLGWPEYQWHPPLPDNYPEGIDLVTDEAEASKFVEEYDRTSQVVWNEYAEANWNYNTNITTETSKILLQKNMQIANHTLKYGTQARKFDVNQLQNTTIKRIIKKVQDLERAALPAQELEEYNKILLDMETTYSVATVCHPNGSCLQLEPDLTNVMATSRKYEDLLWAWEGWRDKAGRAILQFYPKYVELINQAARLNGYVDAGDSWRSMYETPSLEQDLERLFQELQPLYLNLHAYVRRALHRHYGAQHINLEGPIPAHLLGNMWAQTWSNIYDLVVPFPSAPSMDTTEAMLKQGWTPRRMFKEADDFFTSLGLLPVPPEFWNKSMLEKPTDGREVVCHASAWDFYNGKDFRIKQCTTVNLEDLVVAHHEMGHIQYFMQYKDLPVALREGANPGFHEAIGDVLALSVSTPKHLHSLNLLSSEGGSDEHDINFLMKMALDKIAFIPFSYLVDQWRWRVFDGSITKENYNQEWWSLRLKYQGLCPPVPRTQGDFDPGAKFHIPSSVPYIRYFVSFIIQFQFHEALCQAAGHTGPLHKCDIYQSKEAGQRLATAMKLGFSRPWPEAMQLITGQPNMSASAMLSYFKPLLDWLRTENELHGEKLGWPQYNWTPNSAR
row,Structure (SMILES),DETECTED (samples testing positive for ACE-inhibiting drugs)
1,"CCOC(=O)[C@H](CCc1ccccc1)N[C@@H](C)C(=O)N1Cc2cc(OC)c(OC)cc2C[C@H]1C(=O)O [MOEXIPRIL, moexipril]",3
2,"CCOC(=O)[C@H](CCc1ccccc1)N[C@@H](C)C(=O)N1CCC[C@H]1C(=O)O [ENALAPRIL, enalapril]",5
3,"CCOC(=O)[C@H](CCc1ccccc1)N[C@@H](C)C(=O)N1Cc2ccccc2C[C@H]1C(=O)O [QUINAPRIL, quinapril]",15
4,"CCOC(=O)[C@H](CCc1ccccc1)N[C@H]1CCc2ccccc2N(CC(=O)O)C1=O [BENAZEPRIL, benazepril]",14
5,"CCOC(=O)[C@H](CCc1ccccc1)N[C@@H](C)C(=O)N1[C@H](C(=O)O)C[C@@H]2CCC[C@@H]21 [RAMIPRIL, ramipril]",2
6,"NCCCC[C@H](N[C@@H](CCc1ccccc1)C(=O)O)C(=O)N1CCC[C@H]1C(=O)O [LISINOPRIL, lisinopril]",22

# Biological target: T1, Beta-1-adrenergic receptor (Homo sapiens, UniProt P08588)
# T1 construct: purchased Sigma Chemical RBIB-143
# T1 sequence (P08588 whole entry, species assumed): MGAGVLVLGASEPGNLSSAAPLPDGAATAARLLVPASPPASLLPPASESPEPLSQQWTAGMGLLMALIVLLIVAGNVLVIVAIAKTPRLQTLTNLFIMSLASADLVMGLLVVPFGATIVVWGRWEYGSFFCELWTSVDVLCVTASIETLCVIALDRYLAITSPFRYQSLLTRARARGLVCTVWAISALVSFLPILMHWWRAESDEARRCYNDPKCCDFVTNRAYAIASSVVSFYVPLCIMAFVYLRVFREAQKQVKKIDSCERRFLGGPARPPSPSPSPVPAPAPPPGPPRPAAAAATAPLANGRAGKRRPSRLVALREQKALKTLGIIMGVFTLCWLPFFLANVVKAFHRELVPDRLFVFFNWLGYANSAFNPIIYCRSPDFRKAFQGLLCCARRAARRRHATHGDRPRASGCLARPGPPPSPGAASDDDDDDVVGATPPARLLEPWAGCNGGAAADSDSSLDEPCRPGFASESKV
# Assay: Cell receptor assay, competition with radiolabeled 125-iodocyanopindolol
# Format: binding
# Conditions: cut-off control, 20 ug/ml Atenolol in drug negative urine, diluted 1 to 10 before assay; 2 h at room temperature; counts inversely related to unlabeled ligand
# Method: This example provides a cell receptor assay for B1 adrenergic receptors and tests the accuracy of the assay. Patient urine that may or may not contain target ligand and a radiolabeled competitive ligand are added to a test tube containing a limited concentration of cell membrane containing beta-1-adrenergic receptors. The unlabeled ligand in the patient's urine competes with the labeled ligand for the receptor sites during an incubation period. Following incubation the tubes are centrifuged to precipitate the cell membrane-receptors. The solution containing unbound ligand is decanted and the radioactivity retained in the tubes is detected in a gamma counter. The amount of radioactivity bound is indirectly proportional to the concentration of unlabeled ligand present in the patient's urine. […] Adjust the pH to 7.4 with concentrated hydrochloric acid and fill to volume with deionized water. […] Thaw the stock solution of membrane and dilute to 30 milliliter with Tris working buffer. […] The working solution of radiolabel is prepared by diluting the stock 1 to 30 with Tris working buffer. […] Atenolol, propranolol and metoprolol were diluted with HPLC grade ethyl alcohol (Aldrich Chemical Company Milwaukee, Wis.) to produce a 1.0 mg/ml stock solution for each drug. […] The total radioactivity was detected on Packard Cobra II Auto Gamma counter (Packard Instrument Company Downers Grove, Ill.).
row,Structure (SMILES),Counts per Minute
1,CC(C)NCC(O)COc1ccc(CC(N)=O)cc1 (stereo not shown) [Atenolol],5117
